{
  "source": "patent US20260043793A1",
  "about": "“MICROFLUIDIC CELL SPHEROIDS AND ORGANOIDS CULTURE INSERT FOR DISEASE MODELING AND SCREENING OF THERAPEUTICS” (APRICELL BIOTECHNOLOGY INC., priority 2022, published 2026)",
  "format_in_all_cases": "cell-based",
  "key": {"vimentin surface marker": {"tested_on": "vimentin surface marker", "experiment": "Vimentin immunostaining of U251 spheroids (resistant and non-resistant) in collagen/HA ECM", "conditions": "10 nm of Reelin, non-resistant in comparison to resistant spheroids", "from_the_text": "The effect of recombinant Reelin on viability of the U251 cell spheroids or organoids was studied. […] Moreover, to study the invasive behavior of the resistant and non-resistant cell spheroids or organoids, they were embedded in Collagen/HA hydrogel. The method of cell spheroids or organoid embedding in the hydrogel is similar to that disclosed in example 1. In this study, the effect of Reelin protein in combination with ECM hydrogel on invasiveness of the cell spheroids or organoids and their invasion length using Vimentin immunostaining and florescent microscopy respectively was studied.\nLevel of surface vimentin expression of the tumor cells was measured as an indication of invasiveness of cell spheroids or organoids with the ECM matrix."}, "[1]": {"tested_on": "TMZ resistant U251 cell spheroids or organoids", "experiment": "Growth and invasion of TMZ resistant U251 spheroids in Collagen/HA ECM conditioned with Reelin", "conditions": "for average invasion length: Collagen/HA matrix", "procedure": "(§1) To investigate and compare the invasive behavior of TMZ resistant GBM cancer cells with non-resistant cell spheroids or organoids through the ECM hydrogel, we used TMZ resistant and non-resistant U251 cell lines to make cell spheroids or organoids in the device 10 or the sector 20. The method of U251 cell spheroids or organoid formation was similar to that disclosed above.\n(§2) The effect of recombinant Reelin on viability of the U251 cell spheroids or organoids was studied. It was tested with 2 different concentrations of Reelin (1 and 100 nM) on cell spheroids or organoids in the device 10 or the sector 20. Moreover, to study the invasive behavior of the resistant and non-resistant cell spheroids or organoids, they were embedded in Collagen/HA hydrogel. The method of cell spheroids or organoid embedding in the hydrogel is similar to that disclosed in example 1. In this study, the effect of Reelin protein in combination with ECM hydrogel on invasiveness of the cell spheroids or organoids and their invasion length using Vimentin immunostaining and florescent microscopy respectively was studied."}, "[2]": {"tested_on": "U251 cell spheroids or organoids", "experiment": "Effect of recombinant Reelin on viability of U251 spheroids (live-dead)", "conditions": "increasing Reelin concentration from 1 to 100 nM", "procedure": "as §2\nIt is shown in live-dead fluorescent images by increasing the number of red cells stained with Propodeum iodide (PI) compared to the green cells stained with calcein AM after treatment with 100 nM Reelin."}, "[3]": {"tested_on": "TMZ non-resistant U251 cell spheroids or organoids", "experiment": "Growth and invasion of TMZ non-resistant U251 spheroids in Collagen/HA ECM conditioned with Reelin", "procedure": "as §1, §2"}, "[4]": {"conditions": "10 nM Reelin, in response to TMZ"}},
  "data": [
    {"substance": "Reelin: recombinant Reelin protein used alone or in combination with ECM hydrogel", "values": [
      {"measurement": "fluorescent intensity index of the vimentin surface marker", "setting": "vimentin surface marker", "result": "higher fluorescent intensity index"},
      {"measurement": "average invasion length", "setting": "[1]; 10 nM Reelin", "result": "around 400 μm"},
      {"measurement": "invasion length in Reelin conditioned matrix compared to normal matrix", "setting": "[1]; [4]", "result": "reverse"},
      {"measurement": "average invasion length", "setting": "[1]; 100 nM Reelin", "result": "drops significantly"},
      {"measurement": "inhibitory effect on growth (diameter)", "setting": "[1]; higher concentrations of Reelin, day 3, compared with non-resistant", "result": "less"},
      {"measurement": "cell viability", "setting": "[2]", "result": "significant decrease in cell viability"},
      {"measurement": "invasion length in Reelin treated matrix compared to normal ECM matrix", "setting": "[3]; [4]", "result": "higher invasion length"},
      {"measurement": "size increase of spheroids over time (diameter)", "setting": "[3]; each Reelin concentration, day 0 to 3, compared with resistant spheroids", "result": "more significant"},
      {"measurement": "growth of cell spheroids or organoids (diameter)", "setting": "[3]; higher concentrations of Reelin, day 3", "result": "more inhibitory effect on the growth"},
      {"measurement": "invasion length", "setting": "[3]; increasing concentrations of Reelin, Collagen/HA matrix", "result": "constantly increasing"}
    ]}
  ]
}
